Experimental data as given in patent publication US20010023832A1, “Chemical sensor and use thereof” (priority 1995, published 2001).

Target: the enzyme urea (Canavalia ensiformis, UniProt P07374)
Test: Effect of potential interfering substances on the pH response of the urea(bio)sensor
Format: biochemical
Description: Furthermore, the effect of potential interfering substances, such as glucose, acetone, citric acid and sodium acetate, was investigated, see Table 2.

Sequence of the enzyme urea (P07374 whole entry, looked up): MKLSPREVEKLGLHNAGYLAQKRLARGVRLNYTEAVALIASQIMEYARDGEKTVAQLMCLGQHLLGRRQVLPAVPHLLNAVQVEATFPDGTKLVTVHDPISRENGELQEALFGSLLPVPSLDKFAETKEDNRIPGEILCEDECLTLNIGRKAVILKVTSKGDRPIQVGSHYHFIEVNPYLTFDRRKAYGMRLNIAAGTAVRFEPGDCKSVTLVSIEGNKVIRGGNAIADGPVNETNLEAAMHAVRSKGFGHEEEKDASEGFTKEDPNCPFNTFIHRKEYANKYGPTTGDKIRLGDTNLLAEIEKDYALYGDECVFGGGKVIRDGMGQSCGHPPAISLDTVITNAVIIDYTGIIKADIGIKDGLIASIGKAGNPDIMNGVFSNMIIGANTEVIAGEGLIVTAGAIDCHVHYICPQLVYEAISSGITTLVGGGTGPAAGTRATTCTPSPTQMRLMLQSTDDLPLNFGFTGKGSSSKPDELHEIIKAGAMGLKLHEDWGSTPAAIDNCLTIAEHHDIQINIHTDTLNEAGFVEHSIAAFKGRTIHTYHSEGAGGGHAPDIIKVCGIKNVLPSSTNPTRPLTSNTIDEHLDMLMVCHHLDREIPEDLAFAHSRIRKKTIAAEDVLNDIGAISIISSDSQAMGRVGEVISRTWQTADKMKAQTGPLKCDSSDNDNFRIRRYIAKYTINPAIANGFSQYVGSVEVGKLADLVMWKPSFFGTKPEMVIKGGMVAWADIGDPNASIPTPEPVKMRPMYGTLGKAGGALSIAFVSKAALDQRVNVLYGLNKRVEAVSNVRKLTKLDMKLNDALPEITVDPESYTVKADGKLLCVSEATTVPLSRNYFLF

Structure (SMILES): O=S(=O)([O-])[O-].[Cu+2] [Copper sulphate]
- Change in ΔpH (%) (substance 1 mM in sample solution, no stabiliser): −38%
- Change in ΔpH (%) (substance 1 mM, value in parentheses, stabiliser (for instance EDTA) injected together with the enzyme): 0%
- Change in ΔpH (%) (substance 2 mM in sample solution, no stabiliser): −65%
- Change in ΔpH (%) (substance 2 mM, value in parentheses, stabiliser (for instance EDTA) injected together with the enzyme): 0%

Structure (SMILES): CC(=O)[O-].[Na+] [Sodium acetate]
- Change in ΔpH (%) (substance 0.6 mM in sample solution, urea(bio)sensor, pH electrode): 0%
